# According to PMC2822479 (American Journal of Physiology - Endocrinology and …, 2009):
# Where a SMILES comes first, the peptide text is derived from it.
# Molecular target: human KISS1R (Homo sapiens, UniProt Q969F8)
# Assay: Receptor binding assay, competition against [125I]KP-54 in CHO-KISS1R membranes
# Settings: SEM
# human KISS1R, sequence (Q969F8 whole entry): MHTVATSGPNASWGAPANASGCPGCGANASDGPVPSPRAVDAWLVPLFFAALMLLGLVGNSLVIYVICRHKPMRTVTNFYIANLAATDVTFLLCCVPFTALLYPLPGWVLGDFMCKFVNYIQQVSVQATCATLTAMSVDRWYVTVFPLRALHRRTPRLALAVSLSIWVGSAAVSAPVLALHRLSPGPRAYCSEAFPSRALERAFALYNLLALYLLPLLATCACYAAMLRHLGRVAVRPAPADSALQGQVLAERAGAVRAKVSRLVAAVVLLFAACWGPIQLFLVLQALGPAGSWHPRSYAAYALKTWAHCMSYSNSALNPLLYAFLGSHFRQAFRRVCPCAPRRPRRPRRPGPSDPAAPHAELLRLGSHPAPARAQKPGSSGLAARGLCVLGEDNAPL
row,SMILES,IC50 [nM]
1,CC(C)C[C@H](NC(=O)CNC(=O)[C@H](Cc1ccccc1)NC(=O)[C@H](CO)NC(=O)[C@H](CC(N)=O)NC(=O)[C@H](Cc1c[nH]c2ccccc12)NC(=O)[C@H](CC(N)=O)NC(=O)[C@H](C)N)C(=O)N[C@@H](CCCNC(=N)N)C(=O)N[C@@H](Cc1ccccc1)C(N)=O [ANA1] (H-ANWNSFGLRF-NH2),23.2
2,CC(C)C[C@H](NC(=O)CNC(=O)[C@H](Cc1ccccc1)NC(=O)[C@H](CO)NC(=O)[C@H](CC(N)=O)NC(=O)[C@H](Cc1c[nH]c2ccccc12)NC(=O)[C@H](C)NC(=O)[C@@H](N)Cc1ccc(O)cc1)C(=O)N[C@@H](CCCNC(=N)N)C(=O)N[C@@H](Cc1ccccc1)C(N)=O [ANA2] (H-YAWNSFGLRF-NH2),145
3,CC(C)C[C@H](NC(=O)CNC(=O)[C@H](Cc1ccccc1)NC(=O)[C@H](CO)NC(=O)[C@H](C)NC(=O)[C@H](Cc1c[nH]c2ccccc12)NC(=O)[C@H](CC(N)=O)NC(=O)[C@@H](N)Cc1ccc(O)cc1)C(=O)N[C@@H](CCCNC(=N)N)C(=O)N[C@@H](Cc1ccccc1)C(N)=O [ANA4] (H-YNWASFGLRF-NH2),43.5
4,CC(C)C[C@H](NC(=O)CNC(=O)[C@H](C)NC(=O)[C@H](CO)NC(=O)[C@H](CC(N)=O)NC(=O)[C@H](Cc1c[nH]c2ccccc12)NC(=O)[C@H](CC(N)=O)NC(=O)[C@@H](N)Cc1ccc(O)cc1)C(=O)N[C@@H](CCCNC(=N)N)C(=O)N[C@@H](Cc1ccccc1)C(N)=O [ANA6] (H-YNWNSAGLRF-NH2),110
5,C[C@H](NC(=O)CNC(=O)[C@H](Cc1ccccc1)NC(=O)[C@H](CO)NC(=O)[C@H](CC(N)=O)NC(=O)[C@H](Cc1c[nH]c2ccccc12)NC(=O)[C@H](CC(N)=O)NC(=O)[C@@H](N)Cc1ccc(O)cc1)C(=O)N[C@@H](CCCNC(=N)N)C(=O)N[C@@H](Cc1ccccc1)C(N)=O [ANA8] (H-YNWNSFGARF-NH2),77.4
6,CC(C)C[C@H](NC(=O)CNC(=O)[C@H](Cc1ccccc1)NC(=O)[C@H](CO)NC(=O)[C@H](CC(N)=O)NC(=O)[C@H](Cc1c[nH]c2ccccc12)NC(=O)[C@H](CC(N)=O)NC(=O)[C@@H](N)Cc1ccc(O)cc1)C(=O)N[C@@H](C)C(=O)N[C@@H](Cc1ccccc1)C(N)=O [ANA9] (H-YNWNSFGLAF-NH2),42.3
7,CC(C)C[C@H](NC(=O)CNC(=O)[C@H](Cc1ccccc1)NC(=O)[C@H](CO)NC(=O)[C@H](CC(N)=O)NC(=O)[C@H](Cc1c[nH]c2ccccc12)NC(=O)[C@H](CC(=O)O)NC(=O)[C@@H](N)Cc1ccc(O)cc1)C(=O)N[C@@H](CCCNC(=N)N)C(=O)N[C@@H](Cc1ccccc1)C(N)=O [ANA12] (H-YDWNSFGLRF-NH2),29.1
8,CC(C)C[C@H](NC(=O)CNC(=O)[C@H](Cc1ccccc1)NC(=O)[C@H](CO)NC(=O)[C@H](CC(=O)O)NC(=O)[C@H](Cc1c[nH]c2ccccc12)NC(=O)[C@H](CC(N)=O)NC(=O)[C@@H](N)Cc1ccc(O)cc1)C(=O)N[C@@H](CCCNC(=N)N)C(=O)N[C@@H](Cc1ccccc1)C(N)=O [ANA13] (H-YNWDSFGLRF-NH2),140
9,CC(C)C[C@H](NC(=O)CNC(=O)[C@H](Cc1ccc(O)cc1)NC(=O)[C@H](CO)NC(=O)[C@H](CC(N)=O)NC(=O)[C@H](Cc1c[nH]c2ccccc12)NC(=O)[C@H](CC(N)=O)NC(=O)[C@@H](N)Cc1ccc(O)cc1)C(=O)N[C@@H](CCCNC(=N)N)C(=O)N[C@@H](Cc1ccccc1)C(N)=O [ANA15] (H-YNWNSYGLRF-NH2),87.5
10,CC[C@H](C)[C@H](NC(=O)CNC(=O)[C@H](Cc1ccccc1)NC(=O)[C@H](CO)NC(=O)[C@H](CC(N)=O)NC(=O)[C@H](Cc1c[nH]c2ccccc12)NC(=O)[C@H](CC(N)=O)NC(=O)[C@@H](N)Cc1ccc(O)cc1)C(=O)N[C@@H](CCCNC(=N)N)C(=O)N[C@@H](Cc1ccccc1)C(N)=O [ANA16] (H-YNWNSFGIRF-NH2),39.9
11,CC(C)C[C@H](NC(=O)CNC(=O)[C@H](Cc1ccccc1)NC(=O)[C@H](CO)NC(=O)[C@H](CC(N)=O)NC(=O)[C@H](Cc1c[nH]c2ccccc12)NC(=O)[C@H](CC(N)=O)NC(=O)[C@@H](N)Cc1ccc(O)cc1)C(=O)N[C@@H](CCCCN)C(=O)N[C@@H](Cc1ccccc1)C(N)=O [ANA17] (H-YNWNSFGLKF-NH2),9.8
12,CC(C)C[C@H](NC(=O)CNC(=O)[C@H](Cc1ccccc1)NC(=O)[C@H](CO)NC(=O)[C@H](CC(N)=O)NC(=O)[C@H](Cc1c[nH]c2ccccc12)NC(=O)[C@H](CC(N)=O)NC(=O)[C@@H](N)Cc1ccc(O)cc1)C(=O)N[C@@H](CCCNC(=N)N)C(=O)N[C@@H](Cc1c[nH]cn1)C(N)=O [ANA18] (H-YNWNSFGLRH-NH2),378
13,CC(C)C[C@H](NC(=O)CNC(=O)[C@@H](Cc1ccccc1)NC(=O)[C@H](CO)NC(=O)[C@H](CC(N)=O)NC(=O)[C@H](Cc1c[nH]c2ccccc12)NC(=O)[C@H](CC(N)=O)NC(=O)[C@@H](N)Cc1ccc(O)cc1)C(=O)N[C@@H](CCCNC(=N)N)C(=O)N[C@@H](Cc1ccccc1)C(N)=O [ANA20],253
14,CC(C)C[C@H](NC(=O)CNC(=O)[C@H](Cc1ccccc1)NC(=O)[C@H](CO)NC(=O)[C@H](CC(N)=O)NC(=O)[C@H](Cc1c[nH]c2ccccc12)NC(=O)[C@H](CC(N)=O)NC(=O)[C@@H](N)Cc1ccc(O)cc1)C(=O)N[C@@H](CCCNC(=N)N)C(=O)N[C@H](Cc1ccccc1)C(N)=O [ANA21],447

# Now those with a lower IC50, led by results:
row,IC50 [nM],SMILES
1,2.7,CC(C)C[C@H](NC(=O)CNC(=O)[C@H](Cc1ccccc1)NC(=O)[C@H](CO)NC(=O)[C@H](CC(N)=O)NC(=O)[C@H](C)NC(=O)[C@H](CC(N)=O)NC(=O)[C@@H](N)Cc1ccc(O)cc1)C(=O)N[C@@H](CCCNC(=N)N)C(=O)N[C@@H](Cc1ccccc1)C(N)=O [ANA3] (H-YNANSFGLRF-NH2)
2,0.8,CC(C)C[C@H](NC(=O)CNC(=O)[C@H](Cc1ccccc1)NC(=O)[C@H](C)NC(=O)[C@H](CC(N)=O)NC(=O)[C@H](Cc1c[nH]c2ccccc12)NC(=O)[C@H](CC(N)=O)NC(=O)[C@@H](N)Cc1ccc(O)cc1)C(=O)N[C@@H](CCCNC(=N)N)C(=O)N[C@@H](Cc1ccccc1)C(N)=O [ANA5] (H-YNWNAFGLRF-NH2)
3,4.6,CC(C)C[C@H](NC(=O)[C@H](C)NC(=O)[C@H](Cc1ccccc1)NC(=O)[C@H](CO)NC(=O)[C@H](CC(N)=O)NC(=O)[C@H](Cc1c[nH]c2ccccc12)NC(=O)[C@H](CC(N)=O)NC(=O)[C@@H](N)Cc1ccc(O)cc1)C(=O)N[C@@H](CCCNC(=N)N)C(=O)N[C@@H](Cc1ccccc1)C(N)=O [ANA7] (H-YNWNSFALRF-NH2)
4,3.5,CC(C)C[C@H](NC(=O)CNC(=O)[C@H](Cc1ccccc1)NC(=O)[C@H](CO)NC(=O)[C@H](CC(N)=O)NC(=O)[C@H](Cc1c[nH]c2ccccc12)NC(=O)[C@H](CC(N)=O)NC(=O)[C@@H](N)Cc1ccccc1)C(=O)N[C@@H](CCCNC(=N)N)C(=O)N[C@@H](Cc1ccccc1)C(N)=O [ANA11] (H-FNWNSFGLRF-NH2)
5,2.3,CC(C)C[C@H](NC(=O)CNC(=O)[C@H](Cc1ccccc1)NC(=O)[C@@H](NC(=O)[C@H](CC(N)=O)NC(=O)[C@H](Cc1c[nH]c2ccccc12)NC(=O)[C@H](CC(N)=O)NC(=O)[C@@H](N)Cc1ccc(O)cc1)[C@@H](C)O)C(=O)N[C@@H](CCCNC(=N)N)C(=O)N[C@@H](Cc1ccccc1)C(N)=O [ANA14] (H-YNWNTFGLRF-NH2)
6,3.6,CC(C)C[C@H](NC(=O)CNC(=O)[C@H](Cc1ccccc1)NC(=O)[C@H](CO)NC(=O)[C@H](CC(N)=O)NC(=O)[C@H](Cc1c[nH]c2ccccc12)NC(=O)[C@H](CC(N)=O)NC(=O)[C@H](N)Cc1ccc(O)cc1)C(=O)N[C@@H](CCCNC(=N)N)C(=O)N[C@@H](Cc1ccccc1)C(N)=O [ANA19]
7,1,"CC(C)C[C@H](NC(=O)CNC(=O)[C@H](Cc1ccccc1)NC(=O)[C@H](CO)NC(=O)[C@H](CC(N)=O)NC(=O)[C@H](Cc1c[nH]c2ccccc12)NC(=O)[C@H](CC(N)=O)NC(=O)[C@@H](N)Cc1ccc(O)cc1)C(=O)N[C@@H](CCCNC(=N)N)C(=O)N[C@@H](Cc1ccccc1)C(N)=O [KP-10, kisspeptin-10, reference compound]"
